According to PubChem BioAssay (NCI):
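Tested at 5 concentrations; 48 h exposure; 96-well plates; endpoints linearly interpolated, else capped at highest concentration. At the GI50, growth is halved. TGI: concentration producing complete growth inhibition.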

How the values were obtained:
Assay in all cases: DTP human tumour cell line panel, 48 h
[1] = system: SK-MEL-2 melanoma
[2] = system: OVCAR-4 ovarian
[3] = system: T-47D breast
[4] = system: OVCAR-3 ovarian
[5] = system: HCT-15 colon
[6] = system: UO-31 renal
[7] = system: IGROV1 ovarian
[8] = system: OVCAR-5 ovarian
[9] = system: NCI-H226 lung
[10] = system: SN12C renal

SMILES | TGI [1] | TGI [2] | TGI [3] | TGI [4] | TGI [5] | TGI [6] | TGI [7] | TGI [8] | TGI [9] | TGI [10] | GI50 [1] | GI50 [2] | GI50 [3] | GI50 [4] | GI50 [5] | GI50 [6] | GI50 [7] | GI50 [8] | GI50 [9] | GI50 [10]
O=C(O)c1ccc(C(=O)c2ccccc2)c(C(=O)O)c1 | > 100 µM | > 100 µM | > 100 µM | > 100 µM | > 100 µM | > 100 µM | > 100 µM | > 100 µM | > 100 µM | > 100 µM |  |  |  |  |  |  |  |  |  | 
N#CC1(C(N)=O)C(c2ccc(Cl)cc2)CC(=O)CC1c1ccc(Cl)cc1 (centres undefined) | 31.1 µM | 35.6 µM | 41.8 µM | 33.4 µM | 34.3 µM | 32 µM | 33.7 µM | 33.1 µM | 31.6 µM | 35.3 µM | 16.1 µM | 17.5 µM | 17400 nM | 15.8 µM | 16.8 µM | 16.3 µM | 18.1 µM | 16.4 µM | 16 µM | 19.4 µM
O=[N+]([O-])c1ccc(C=Cc2ccccc2)cc1.[C-]#[O+].[C-]#[O+].[C-]#[O+].[Cr] | > 100 µM | > 100 µM | > 100 µM | > 100 µM | > 100 µM | > 100 µM | > 100 µM | > 100 µM | > 100 µM | > 100 µM | 57.7 µM | 8.93 µM | 4190 nM | 21.2 µM | 43.4 µM | 6.3 µM | 6.78 µM | > 100 µM | 27.8 µM | 10.1 µM
CN[C@@H](C)C(=O)N[C@H](C(=O)N1CCC[C@H]1C(=O)Nc1sc(-c2ncco2)nc1-c1ccccc1)C1CCCCC1 | > 100 µM | > 100 µM | 82.4 µM | > 100 µM | > 78.7 µM | > 68.9 µM | > 100 µM | > 64.6 µM | > 100 µM | > 71.9 µM | 16.3 µM | 3.26 µM | 24300 nM | 38.7 µM | 22.6 µM | 32.1 µM | 47.5 µM | 38 µM | > 100 µM | 38.9 µM
O=S(=O)(Nc1cc(Sc2cccc3cccnc23)c(O)c2ccccc12)c1ccc(F)cc1 | 7.52 µM | 1.8 µM | 4.67 µM | 3.08 µM | 3.16 µM | 4.75 µM | 4.2 µM | 10.6 µM | 19 µM | 3.61 µM | 1.84 µM | 0.504 µM | 1750 nM | 0.869 µM | 0.461 µM | 1.09 µM | 1.06 µM | 2.63 µM | 3.24 µM | 0.97 µM
Cc1ccc(/C=N\NC(=O)c2[nH]c3ccc(F)cc3c2-c2ccccc2)cc1 | 24.5 µM | > 100 µM | > 100 µM | 0.0782 µM |  | > 46 µM | 10.7 µM | > 100 µM | > 100 µM | > 100 µM | 0.0488 µM | 0.147 µM | 1100 nM | 0.0261 µM | 0.0288 µM | 0.0472 µM | 0.0336 µM | 0.0591 µM | 0.0321 µM | 0.0436 µM
COc1cccc(OC(=O)c2ccc(C(F)(F)F)nc2Nc2cc(Cl)ccc2C)c1 | 50.2 µM | > 100 µM | > 100 µM | 46.8 µM | > 100 µM | > 100 µM | > 100 µM | 47.4 µM | 31.5 µM | > 100 µM | 12.9 µM | > 100 µM | 2820 nM | 22.9 µM | 4.33 µM | 5.8 µM | 8.35 µM | 15.1 µM | 4.88 µM | 29.2 µM
O=C(OCc1ccc2ccccc2n1)c1cn(C2CC2)c2cc(N3CCN(Cc4ccc5ccccc5n4)CC3)c(F)cc2c1=O | > 100 µM | > 100 µM | > 100 µM | > 100 µM | > 100 µM | > 100 µM | > 100 µM | > 100 µM | 91.6 µM | > 100 µM | > 100 µM | > 100 µM | 12900 nM | 44.9 µM | 62.6 µM | > 100 µM | > 93.2 µM | > 81.5 µM | 22.1 µM | > 100 µM
CCCN(CCS(C)(=O)=O)Cc1ccc(-c2ccc3ncnc(Nc4ccc(OCc5cccc(F)c5)c(Cl)c4)c3c2)o1 | > 25 µM | > 25 µM | 24.7 µM | > 25 µM | > 25 µM | > 25 µM | > 25 µM | > 25 µM | > 25 µM | > 25 µM | > 25 µM | 21.3 µM | 1820 nM | > 22.9 µM | > 25 µM | 5.12 µM | 16.5 µM | > 25 µM | > 25 µM | > 25 µM
CCOc1ccccc1C(=O)N1CCN(c2cc(Cl)cc(Cl)c2)CC1 | 18.4 µM | 18.5 µM | 29.9 µM | 12.4 µM | 10.9 µM | 16 µM | 13.9 µM | 16.2 µM | 6.55 µM | 14.7 µM | 1.13 µM | 0.266 µM | 393 nM | 0.0391 µM | 0.0322 µM | 0.0978 µM | 0.0408 µM | 0.0552 µM | 0.839 µM | 0.0493 µM
